Experimental data as given in patent US5206415A, “Tricyclic steroid analogs” (priority 1991, dated 1993).
Where a name gives a salt, the structure may show the parent alone. Read-outs that look alike come from different tables or passages of the source.

Key:
[1] = system: GABA receptor/chloride ionophore complex; assay: Potentiation of GABA currents by tricyclic analogs (patch clamp, cultured hippocampal neurons); assay type: cell-based, albino rat; settings: 1 μM GABA, mean ± SEM (N)
Method: (§1) Under halothane anesthesia, 1 day old albino rat pups are sacrificed by rapid decapitation and the hippocampi are dissected and dissociated with papain (1 mg/ml in oxygenated L-15 media for 30 min at 35° C.) and mechanical trituration (18). Cells are plated on collagen coated-culture dishes at a density of 300,000 cells/ml. The growth media consists of Eagles Minimal Essential Media (MEM) supplemented with 5% fetal calf serum, 5% horse serum, 17 mM glucose, 0.4 mM glutamine, 50 U/ml penicillin and 50 μg/ml streptomycin. After three days in culture cells are treated with 10 μM cytosine arabinoside (ARA-C) to suppress glial growth. Cells are subsequently fed with fresh media once per week.
(§2) For recording purposes the growth media is replaced with a solution containing (in mM): 140 NaCl, 5 KCl, 2 CaCl2, 1 MgCl2, 10 glucose, 10 HEPES, 0.001 tetrodotoxin, pH=7.3. Neurons are studied using patch clamp recording techniques (12) with pipettes containing (in mM): 145 CsCl, 5 BAPTA, 5 NaCl, 0.5 CaCl2, 2 MgATP, 10 HEPES, pH=7.3. This CsCl intracellular solution sets the Cl^-1 equilibrium potential (Ecl) at 0 mV (i.e. symmetric transmembrane concentrations of Cl^-). This allows reliable recording of Cl^-1 currents without concern for shifts in transmembrane Cl^-1 concentration which can alter GABA responses during longer agonist exposures (1). […]

[2] = system: recombinant human GABAA receptors; settings: single channel recordings; cited from earlier work
[3] = system: GABA receptor/chloride ionophore complex; assay: Direct Cl^- current activation (patch clamp, cultured hippocampal neurons); assay type: cell-based, albino rat; settings: numeric bound
Method: as §1, §2

[4] = system: GABA-induced chloride currents; settings: electrophysiological experiments; cited from earlier work
[5] = cited from earlier work
[6] = system: rat synaptoneurosomes; settings: cited from earlier work
[7] = system: picrotoxin site; settings: cited from earlier work
[8] = system: GABA currents; settings: various CNS neurons, cited from earlier work
[9] = system: GABAA channels; settings: single channel; cited from earlier work
[10] = in vivo; cited from earlier work
[11] = system: GABA receptor channel complex; settings: cited from earlier work
[12] = system: benzodiazepine receptors; settings: several studies; cited from earlier work
[13] = system: GABAA receptors; settings: cited from earlier work
[14] = system: GABA-mediated neuronal inhibition; settings: cited from earlier work
[15] = rats; cited from earlier work
[16] = two different animal models of anxiety; cited from earlier work
[17] = system: GABAA receptors; settings: cultured hippocampal neurons; cited from earlier work
[18] = system: GABA-gated channels; settings: fluctuation analysis; cited from earlier work
[19] = system: GABA-mediated inhibitory synaptic responses; settings: olfactory cortical slices; cited from earlier work

CC(=O)[C@H]1CC[C@H]2[C@@H]3CC[C@H]4C[C@H](O)CC[C@]4(C)[C@H]3CC[C@]12C [Example 3α-OH-DHP, 3α-hydroxy-5α-pregnan-20-one]
Potentiation of GABA currents, 0.1 μM ([1]; 0.1 μM compound): 110 ± 5% of control response to | Potentiation of GABA currents, 1.0 μM ([1]; 1.0 μM compound): 195 ±16% of control response to | channel open times and burst lengths / opening frequency [2]: increases the frequency of channel opening without altering the open times | Concentration for Direct Cl^- Current Activation [3]: > 1 µM | potentiation of GABA-induced chloride currents [4]: potentiators of GABA-induced chloride currents | activity in vivo as steroid anesthetics [5]: active in vivo as steroid anesthetics | potentiation of muscimol-stimulated chloride uptake [6]: potentiators of muscimol-stimulated chloride uptake

C[C@]12CC[C@H](OS(=O)(=O)O)CC1=CC[C@@H]1[C@@H]2CC[C@]2(C)C(=O)CC[C@@H]12 [dehydroepiandrosterone sulfate (DHEAS), dehydroepiandrosterone sulfate]
TBPS binding [7]: not DHEAS | GABA currents [8]: inhibit GABA currents

CC(=O)[C@H]1CC[C@H]2[C@@H]3CC[C@@H]4C[C@H](O)CC[C@]4(C)[C@H]3CC[C@]12C [3α-hydroxy-5β-pregnan-20-one]
potentiation of GABA-induced chloride currents [4]: potentiators of GABA-induced chloride currents | activity in vivo as steroid anesthetics [5]: active in vivo as steroid anesthetics | potentiation of muscimol-stimulated chloride uptake [6]: potentiators of muscimol-stimulated chloride uptake

picrotoxin
opening frequency of the channels [9]: decreasing the opening frequency of the channels

CC(=O)[C@H]1CC[C@H]2[C@@H]3CCC4=CC(=O)CC[C@]4(C)[C@H]3CC[C@]12C [progesterone]
usefulness for treating premenstrual syndrome [10]: often useful

C[C@]12CCC(=O)C=C1CC[C@@H]1[C@@H]2[C@@H](O)C[C@@]2(C)[C@H]1CC[C@]2(O)C(=O)CO [Cortisol]
GABA-induced chloride currents ([11]; nanomolar concentrations): inhibits these same currents | GABA-induced chloride currents ([11]; picomolar concentrations): augments GABA-induced chloride currents

CCCC(C)C1(CC)C(=O)NC(=O)NC1=O (stereo not shown) [pentobarbital]
channel open times and burst lengths / opening frequency [2]: prolongs channel open times and burst lengths

CCOC(=O)c1ncn2c1CN(C)C(=O)c1cc(F)ccc1-2 [R015-1788 (flumazenil)]
effect on steroid responses [12]: failed to find an effect

CN1CCc2cc3c(cc2[C@H]1[C@@H]1OC(=O)c2c1ccc1c2OCO1)OCO3 [bicuculline]
block of steroid gated currents [13]: blocked

C[C@]12CC[C@@H](O)C[C@@H]1CC[C@@H]1[C@@H]2CC[C@]2(C)[C@@H](C(=O)CO)CC[C@@H]12 [THDOC, 5α-pregnane-3α, 21-diol-20-one]
GABA-mediated neuronal inhibition [14]: augment GABA-mediated neuronal inhibition | sleep induction and nonREM sleep [15]: induce sleep and increase nonREM sleep | anxiolytic and sedative activity [16]: both anxiolytic and sedative activity

CC(=O)[C@H]1CC[C@H]2[C@@H]3CC[C@H]4C[C@H](O)CC[C@]4(C)[C@H]3C(=O)C[C@]12C [alphaxalone]
peak IPSC amplitude or rise time [17]: without change in peak IPSC amplitude or rise time | prolongation of IPSC decay [17]: 5-8 fold | burst length of GABA-gated channels [18]: significantly prolongs the burst length of GABA-gated channels | single channel conductance [18]: without changing the single channel conductance | time course of GABA-mediated inhibitory synaptic responses [19]: prolongs the time course of GABA-mediated inhibitory synaptic responses

CC(=O)C1CCC2C3CC=C4CC(OS(=O)(=O)O)CCC4(C)C3CCC12C (stereo not shown) [pregnenolone sulfate]
TBPS binding [7]: inhibits TBPS binding at the picrotoxin site | opening frequency of the channels [9]: decreasing the opening frequency of the channels | GABA currents [8]: inhibit GABA-induced chloride currents | GABA currents ([8]; listed as pregnenolone sulfate (PS)): inhibit GABA currents
